In patent US5932587A, “Heterocyclic-fused pyridines” (Bayer Aktiengesellschaft, priority 1996, dated 1999):

Legend:
CETP = assay: Ex vivo activity: CETP activity in serum of treated Syrian golden hamsters; details: ex vivo CETP activity in hamster serum; for ED50 (ex vivo activity): up to 24 hours after administration
Description: Ex vivo activity of the compounds according to the invention
Syrian golden hamsters from in-house breeding are anaesthetized after fasting for 24 hours (0.8 mg/kg of atropine, 0.8 mg/kg of Ketavet® s.c., 30' later 50 mg/kg of Nembutal i.p.). The jugular vein is then exposed and cannulated. The test substance is dissolved in a suitable solvent (as a rule Adalat placebo solution: 60 g of glycerol, 100 ml of H2 O, PEG-400 to 1000 ml) and administered to the animals via a PE catheter inserted in the jugular vein. The control animals receive the same volume of solvent without test substance. The vein is then tied off and the wound is closed.
The administration of the test substances can also be carried out p.o., by orally administering the substances dissolved in DMSO and suspended in 0.5% Tylose by means of a stomach tube. The control animals receive identical volumes of solvent without test substance.
After various times--up to 24 hours after administration--blood (about 250 μl) is taken from the animals by puncture of the retro-orbital venous plexus. Clotting is ended by incubation at 4° C. overnight, then centrifugation is carried out at 6000×g for 10 minutes. In the serum thus obtained, CETP activity is determined by the modified CETP test. As for the CETP test described above, the transfer of ^3 H-cholesterol ester from HD lipoproteins to biotinylated LD lipoproteins is measured.
The reaction is ended by addition of Streptavidin-SPA®beads (Amersham) and the transferred radioactivity is determined directly in the liquid scintillation counter.
The test mixture is carried out as described under "CETP test". For the testing of the serum, only 10 μl of CETP are replaced by 10 μl of the corresponding serum samples. As controls, corresponding incubations with sera of untreated animals are used.
The activity transferred in the control mixtures with control sera is rated as 100% transfer. The substance concentration at which this transfer is reduced to a half is indicated as the ED50 value.

[1] = target: T1, cholesterol ester transfer protein (CETP) (Homo sapiens, UniProt P11597); assay: CETP inhibition test (transfer of 3H-cholesterol ester from human HDL to biotinylated LDL, SPA); format: biochemical; details: 37° C., 18 h
T1 construct: CETP is obtained from human plasma in partially purified form; from tissue; host or cells: human plasma (partially purified in house by differential centrifugation and column chromatography)
T1 sequence (P11597 18-493): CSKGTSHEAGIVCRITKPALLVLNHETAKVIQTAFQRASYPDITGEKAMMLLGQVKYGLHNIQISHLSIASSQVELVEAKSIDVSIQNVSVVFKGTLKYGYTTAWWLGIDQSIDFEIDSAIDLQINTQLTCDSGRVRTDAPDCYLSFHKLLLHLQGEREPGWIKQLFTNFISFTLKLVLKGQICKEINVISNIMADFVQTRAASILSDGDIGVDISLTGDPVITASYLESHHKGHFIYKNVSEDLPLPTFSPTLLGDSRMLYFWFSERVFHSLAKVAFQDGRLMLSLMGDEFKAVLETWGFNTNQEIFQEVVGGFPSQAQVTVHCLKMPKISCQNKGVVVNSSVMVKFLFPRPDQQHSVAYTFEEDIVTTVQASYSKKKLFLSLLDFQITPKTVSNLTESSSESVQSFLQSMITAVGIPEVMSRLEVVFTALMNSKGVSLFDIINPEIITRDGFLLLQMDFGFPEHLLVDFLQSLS
Description: CETP is obtained from human plasma in partially purified form by differential centrifugation and column chromatography and used for the test. To this end, human plasma is adjusted to a density of 1.21 g per ml using NaBr and centrifuged at 4° C. for 18 h at 50,000 rpm. The bottom fraction (d>1.21 g/ml) is applied to a Sephadex®phenyl-sepharose 4B (Pharmacia) column, washed with 0.15 M NaCl/0.001 M tris HCl pH 7.4 and then eluted with distilled water. The CETP-active fractions are pooled, dialysed against 50 mM Na acetate pH 4.5 and applied to a CM-Sepharose® (Pharmacia) column. The column is then eluted using a linear gradient (0-1 M NaCl). The pooled CETP fractions are dialysed against 10 mM tris HCl pH 7.4 and then further purified by chromatography on a Mono Q® column (Pharmacia).
Obtainment of radiolabelled HDL
50 ml of fresh human EDTA plasma are adjusted to a density of 1.12 using NaBr and centrifuged at 50,000 rpm for 18 h at 4° C. in a Ty 65 rotor. The upper phase is used to obtain cold LDL. The lower phase is dialysed against 3×4 l of PDB buffer (10 mM tris/HCl pH 7.4, […], 1 mM EDTA, 0.02% NaN3). 20 μl of ^3 H-cholesterol (Dupont NET-725; 1 μC/μl dissolved in ethanol) are then added per 10 ml of retentate volume and the mixture is incubated under N2 at 37° C. for 72 h. […]
To test the CETP activity, the transfer of ^3 H-cholesterol ester from human HD lipoproteins to biotinylated LD lipoproteins is measured. The reaction is ended by addition of streptavidin-SPA®beads (Amersham) and the transferred radioactivity is determined directly in a liquid scintillation counter.
In the test mixture, 10 μl of HDL-^3 H-cholesterol ester (~50,000 cpm) are incubated at 37° C. for 18 h with 10 μl of biotin-LDL (Amersham) in 50 mM Hepes/0.15 M NaCl/0.1% bovine serum albumin/0.05% NaN3 pH 7.4 with 10 μl of CETP (1 mg/ml) and 3 μl of solution of the substance to be tested (dissolved in 10% DMSO/1% RSA). 200 μl of the SPA-streptavidin bead solution (TRKQ 7005) are then added, the mixture is incubated further for 1 h with shaking and then measured in the scintillation counter. […]

[2] = In vivo activity: oral action on lipoproteins and triglycerides in Syrian golden hamsters (HDL rise); details: dose 2 × 3 mg/kg, hamster, up to 24 hours after administration
Description: In vivo activity of the compounds according to the invention
In experiments to determine the oral action on lipoproteins and triglycerides, test substance dissolved in DMSO and 0.5% Tylose suspended by means of a stomach tube are administered orally to Syrian golden hamsters from in-house breeding. To determine the CETP activity, blood (about 250 μl) is taken by retro-orbital puncture before the start of the experiment. The test substances are then administered orally by means of a stomach tube. The control animals receive identical volumes of solvent without test substance. […]
Clotting is ended by incubation at 4° C. overnight, then centrifugation at 6000×g is carried out for 10 minutes. In the serum thus obtained, the content of cholesterol and triglycerides is determined with the aid of modified commercially available enzyme tests (cholesterol enzymatic 14366 Merck, triglycerides 14364 Merck). […]
100 μl of serum dilution are mixed with 100 μl of test substance in 96-hole plates and incubated at room temperature for 10 minutes. The optical density is then determined at a wavelength of 492 nm using an automatic plate-reading apparatus. The triglyceride or cholesterol concentration contained in the samples is determined with the aid of a standard curve measured in parallel. […]

[3] = In vivo activity in transgenic hCETP mice (change in HDL, LDL, triglycerides); details: 80 ppm in the feed, one week
Description: In vivo activity in transgenic hCETP mice
Transgenic mice from in-house breeding (Dinchuck, Hart, Gonzalez Karmann Schmidt, Wirak; BBA (1995), 1295, 301) were administered the substances to be tested in the feed. Before the start of the experiment, blood was taken retro-orbitally from the mice in order to determine cholesterol and triglycerides in the serum. The serum was obtained as described above for hamsters by incubation at 4° C. overnight and subsequent centrifugation at 6000×g. After one week, blood was again taken from the mice in order to determine lipoproteins and triglycerides. The change in the parameters measured is expressed as a percentage change compared with the starting value.

IC50 [1] | SMILES | ED50 (ex vivo activity) (CETP) | % Inhibition at 10 mg/kg (CETP) | % HDL rise [2] | HDL (percentage change compared with the starting value) [3] | LDL (percentage change compared with the starting value) [3] | Triglycerides (percentage change compared with the starting value) [3]
 | CC1CC(O)c2c(nc(C3CCCC3)c(C(O)c3ccc(C(F)(F)F)cc3)c2-c2ccc(F)cc2)N1Cc1ccccc1 (single isomer, unassigned) [Example 21] | > 10 mg/kg | 34.4% |  |  |  | 
200 nM | OC1CSCc2nc(C3CCCC3)c(C(F)c3ccc(C(F)(F)F)cc3)c(-c3ccc(F)cc3)c21 (centres unmarked) [Example 12] | < 10 mg/kg | 49.5% | 12.37% |  |  | 
6000 nM | O=S1(=O)Cc2nc(C3CCCC3)c(C(O)c3ccc(C(F)(F)F)cc3)c(-c3ccc(F)cc3)c2C(O)C1 (centres unmarked) [Example 14] |  |  |  |  |  | 
850 nM | OC1CCN(Cc2ccccc2)c2nc(C3CCCC3)c(Cc3ccc(C(F)(F)F)cc3)c(-c3ccc(F)cc3)c21 (centres unmarked) [Example 16] |  |  |  |  |  | 
 | CC1CC(O)c2c(nc(C3CCCC3)c(Cc3ccc(C(F)(F)F)cc3)c2-c2ccc(F)cc2)N1Cc1ccccc1 (centres unmarked) [Example 20] | > 10 mg/kg | 50.4% | 9.21% | +14.5% | +6.7% | -24.5%
